Assay [1] can be described thus: Luminescence Cell-Based Dose Confirmation HTS to Identify Activators of 5'UTR Stem-Loop Driven Alpha-Synuclein mRNA Translation in H4 Neuroglioblastoma Cells. [Related pubchem assays: 1829 (Project Summary), 1814 (Primary HTS)]. The assay is classed as functional.
Assay [2] in a line: Luminescence Cell-Based Dose Response HTS to Identify Activators of Luciferase Translation or Activity in H4 […] Cells. [Related pubchem assays: 1829 (Project Summary), 1814 (Primary HTS)]. The assay is classed as functional.
The subject of the next assay is H4. Put plainly: Luminescence Cell-Based Dose Response HTS to Identify Activators of 5'UTR Stem-Loop Driven Prion Protein mRNA Translation in H4 Neuroglioblastoma Cells. [Related pubchem assays: 1829 (Project Summary), 1814 (Primary HTS)]. It counts as functional. Particulars: Homo sapiens.
For assay [3], the target named is T1, Polyadenylate-binding protein 1 (Homo sapiens, UniProt P11940). Put plainly: PABP1 MLLE–PAM2 interaction inhibitors, dose response, miRNA deadenylation inhibitor project, biochemical, fluorescence polarization, Cy5-PAM2 peptide, secondary (AID 602260). The note with it: read-out: IC50_Mean. The assay is classed as functional.
The target of assay [4] is T1, Polyadenylate-binding protein 1. Put plainly: PABP1 MLLE–PAM2 binding inhibitor potency, dose response, biochemical, fluorescence polarization, FITC-PAM2 peptide (AID 602259). It counts as functional. The note with it: read-out: IC50_Mean.
Assay [5] addresses T2, Corticotropin-releasing factor receptor 2/Corticotropin-releasing factor-binding protein (Homo sapiens, UniProt P24387+Q13324).
T2 sequence (Q13324 whole entry): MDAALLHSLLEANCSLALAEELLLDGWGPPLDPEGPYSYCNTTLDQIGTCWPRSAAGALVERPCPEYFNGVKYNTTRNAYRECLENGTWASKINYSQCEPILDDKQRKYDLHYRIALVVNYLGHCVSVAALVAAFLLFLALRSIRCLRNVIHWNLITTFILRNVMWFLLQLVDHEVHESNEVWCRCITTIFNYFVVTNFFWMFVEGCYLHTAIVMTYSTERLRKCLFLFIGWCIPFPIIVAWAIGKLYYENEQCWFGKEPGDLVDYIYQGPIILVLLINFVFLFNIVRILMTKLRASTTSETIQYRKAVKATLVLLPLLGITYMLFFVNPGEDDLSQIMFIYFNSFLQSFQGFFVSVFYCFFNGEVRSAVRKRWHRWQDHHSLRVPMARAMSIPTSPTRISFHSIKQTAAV
T2 sequence (P24387 whole entry): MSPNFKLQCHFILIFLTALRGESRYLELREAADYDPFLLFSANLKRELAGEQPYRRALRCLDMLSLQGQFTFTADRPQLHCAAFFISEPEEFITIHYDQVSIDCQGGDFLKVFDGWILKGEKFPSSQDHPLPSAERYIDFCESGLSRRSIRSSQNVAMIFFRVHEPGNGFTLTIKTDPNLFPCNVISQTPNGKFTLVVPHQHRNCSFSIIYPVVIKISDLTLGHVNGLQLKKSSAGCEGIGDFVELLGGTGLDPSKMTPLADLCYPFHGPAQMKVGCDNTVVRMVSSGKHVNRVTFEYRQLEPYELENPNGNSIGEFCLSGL
Put plainly: Dose Response confirmation of uHTS hits for small molecule antagonists of the CRF-binding protein and CRF-R2 receptor complex. The assay is classed as functional. The note with it: read-out: IC50_Mean.

Assay [6] concerns the target T2, Corticotropin-releasing factor receptor 2/Corticotropin-releasing factor-binding protein. Put plainly: activators of CRF receptor 2 with binding protein – uHTS hits, confirmation (AID 602473). Particulars: read-out: EC50_Mean. It counts as functional.
The target of a further assay is T3, Protein RecA (Mycobacterium tuberculosis, UniProt P9WHJ3).
T3 sequence (P9WHJ3 whole entry): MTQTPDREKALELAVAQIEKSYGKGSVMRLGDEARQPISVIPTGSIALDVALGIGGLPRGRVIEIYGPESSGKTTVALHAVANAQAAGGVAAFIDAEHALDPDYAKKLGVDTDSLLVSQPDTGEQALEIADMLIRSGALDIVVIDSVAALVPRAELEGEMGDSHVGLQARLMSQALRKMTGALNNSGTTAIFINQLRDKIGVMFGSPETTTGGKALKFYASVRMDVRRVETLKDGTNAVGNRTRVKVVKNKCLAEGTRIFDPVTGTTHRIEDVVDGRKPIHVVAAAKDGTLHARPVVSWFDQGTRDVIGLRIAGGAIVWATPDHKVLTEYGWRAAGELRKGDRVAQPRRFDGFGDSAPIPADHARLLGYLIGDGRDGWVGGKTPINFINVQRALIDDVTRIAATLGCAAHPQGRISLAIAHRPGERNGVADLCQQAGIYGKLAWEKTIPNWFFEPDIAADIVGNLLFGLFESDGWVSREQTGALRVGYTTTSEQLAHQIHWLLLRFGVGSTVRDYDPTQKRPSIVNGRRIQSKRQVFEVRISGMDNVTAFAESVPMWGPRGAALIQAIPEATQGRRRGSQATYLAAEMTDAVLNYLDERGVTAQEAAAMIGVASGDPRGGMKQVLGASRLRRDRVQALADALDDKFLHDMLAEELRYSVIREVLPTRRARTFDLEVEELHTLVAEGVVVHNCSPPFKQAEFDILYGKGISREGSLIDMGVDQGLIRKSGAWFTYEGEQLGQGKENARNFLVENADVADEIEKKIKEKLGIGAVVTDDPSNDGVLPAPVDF
Put plainly: Fluorescence Cell-Free Homogeneous Dose Retest to Identify Inhibitors of RecA-Intein Splicing Activity. [Related pubchem assays (depositor defined):AID2097, AID2223, AID489010, AID492950]. It counts as functional.

The next assay has as its target Paired box protein Pax-8 (Homo sapiens, UniProt Q06710). Put plainly: inhibitors of PAX8-driven TPO luciferase reporter, dose response, RMG-I cells, cherry-pick (AID 687027).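 Note: luciferase reporter driven by Pax8 target thyroperoxidase promoter measured by SteadyGlo luminescence.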 The assay is classed as functional, cell-based. (In general: In a reporter assay the amount or activity of a reporter protein is the signal.)
In assay [7] the target is T4, RNA-binding protein pos-1 (Caenorhabditis elegans, UniProt G5EF15).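 Note: purified POS-1 fused to maltose binding protein made in E. coli; potency of compounds blocking POS-1 binding to fluorescent RNA.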
T4 sequence (G5EF15 whole entry): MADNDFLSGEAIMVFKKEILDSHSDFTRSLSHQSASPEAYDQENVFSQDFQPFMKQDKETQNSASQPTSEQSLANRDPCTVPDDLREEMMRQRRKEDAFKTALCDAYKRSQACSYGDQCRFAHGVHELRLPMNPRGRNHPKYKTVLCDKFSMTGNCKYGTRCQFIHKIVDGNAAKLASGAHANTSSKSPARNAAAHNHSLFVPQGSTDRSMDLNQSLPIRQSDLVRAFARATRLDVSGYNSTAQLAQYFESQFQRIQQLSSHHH
Put plainly: inhibitors of POS-1/mex-3 RNA binding, dose response, biochemical, fluorescence polarization (AID 1964). (In general: In fluorescence polarisation assays a small probe gives low polarisation when free and higher when bound to something large.)

The source made the active and inactive calls. Cut-off read from the data, not from the text of the source, for most assays here: actives have a measured EC50 and inactives only a lower limit. Where only a bound is given, the exact number is not on record here.

T1 sequence (P11940 whole entry): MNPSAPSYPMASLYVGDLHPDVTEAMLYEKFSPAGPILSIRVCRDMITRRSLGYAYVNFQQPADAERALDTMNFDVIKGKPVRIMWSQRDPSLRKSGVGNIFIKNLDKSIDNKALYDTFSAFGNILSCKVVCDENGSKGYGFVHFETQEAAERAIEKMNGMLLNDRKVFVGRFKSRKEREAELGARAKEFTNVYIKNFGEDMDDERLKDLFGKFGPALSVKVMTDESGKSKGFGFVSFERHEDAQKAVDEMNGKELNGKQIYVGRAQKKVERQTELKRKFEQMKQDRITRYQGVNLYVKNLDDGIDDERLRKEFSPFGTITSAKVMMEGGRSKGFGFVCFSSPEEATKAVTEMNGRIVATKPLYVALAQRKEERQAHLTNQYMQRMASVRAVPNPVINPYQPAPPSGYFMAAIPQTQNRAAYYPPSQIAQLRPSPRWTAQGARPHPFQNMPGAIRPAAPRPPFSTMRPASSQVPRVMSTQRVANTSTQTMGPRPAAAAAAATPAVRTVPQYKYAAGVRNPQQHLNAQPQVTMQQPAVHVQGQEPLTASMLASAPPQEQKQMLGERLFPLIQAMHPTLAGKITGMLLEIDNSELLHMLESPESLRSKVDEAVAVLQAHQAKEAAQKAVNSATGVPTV
Sequence of Paired box protein Pax-8 (Q06710 whole entry, the tested form may be a part): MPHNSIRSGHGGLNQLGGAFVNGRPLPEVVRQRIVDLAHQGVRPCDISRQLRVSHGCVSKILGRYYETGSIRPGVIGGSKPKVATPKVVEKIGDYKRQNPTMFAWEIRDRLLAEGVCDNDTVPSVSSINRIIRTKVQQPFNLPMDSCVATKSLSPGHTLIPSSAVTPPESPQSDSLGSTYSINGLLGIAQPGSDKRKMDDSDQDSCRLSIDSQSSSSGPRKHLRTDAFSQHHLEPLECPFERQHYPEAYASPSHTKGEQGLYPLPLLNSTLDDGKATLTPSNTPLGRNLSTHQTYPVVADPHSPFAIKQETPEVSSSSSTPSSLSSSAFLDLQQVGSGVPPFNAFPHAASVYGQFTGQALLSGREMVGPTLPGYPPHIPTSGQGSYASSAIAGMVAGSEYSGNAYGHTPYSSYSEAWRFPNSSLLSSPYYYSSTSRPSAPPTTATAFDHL

Consider `Fc1ccc(N2Cc3ccsc3C=N2)cc1`, for which the results for the EC50 (in assay [1]; in assay [2]; with H4) were 37.1 µM (active), 23.9 µM (active) and > 120 µM (not active), respectively.
Regarding `CCOC(=O)c1sc(=S)n(C)c1NC(=O)c1ccccc1Cl`, the IC50 in assay [3] and in assay [4] was > 66 µM (inactive) each time.
Take `Cc1ccc2nc(N3C(=O)C(O)=C(C(=O)c4ccc(C)o4)C3c3cccc(O)c3)sc2c1` (configuration not stated): the IC50 in assay [5] is 7.83 µM (active). Moreover, the EC50 in [6] was > 53 µM (inactive).
Regarding `C#CCNC(=O)C1=C[C@H](c2ccc3c(c2)OCO3)[C@@H](CCCO)[C@H](OCC)O1`, in assay [5], the IC50 was > 47.1 µM (inactive). The EC50 in assay [6] was > 53 µM (inactive).
Take `CC1(C)CC2=NC(SCC(N)=O)=C(C#N)C3(CCCCC3)C2=C(O)C1`: the IC50 in assay [3] and in [4] was > 66 µM (inactive) in each case.
As for `c1coc(CSc2ncnc3c2oc2ccccc23)c1`, the EC50 was 3.52 µM (active) in [1], 4.94 µM (active) in [2] and 6.38 µM (active) in the assay on H4.
For the compound `Cn1c(SCC(=O)c2ccc3c(c2)OCCO3)nnc1C(F)(F)F`, the IC50 in [5] was > 47.1 µM (inactive). The EC50 in assay [6] is > 53 µM (inactive).
The matching figures for `O=c1ccc2cc(S(=O)(=O)NCc3ccccc3)ccc2[nH]1`: > 47.1 µM (inactive) and > 53 µM (inactive).
`c1ccc(-c2noc(C34CC5CC(CC(C5)C3)C4)n2)nc1`: the EC50 in assay [1] is 0.122 µM (active); in [2] it was 30.3 µM (active); in the assay on H4, 48 µM (active).
Turning to `CC(=O)c1ccc(N2CCN(C(=O)CCS(=O)(=O)c3ccc4c(c3)CCN4C(C)=O)CC2)cc1`, the IC50 in assay [5] is > 47.1 µM (inactive). Moreover, the EC50 in assay [6] was > 53 µM (inactive).
The matching figures for `COc1ccccc1C(=O)NC(CCSC)C(=O)NC1CCCCCC1` (configuration not stated): > 47.1 µM (inactive) and > 53 µM (inactive).
Take `COc1ccc(OC)c(NC(=O)CSC2=NCCS2)c1`: the IC50 in assay [3] and in assay [4] was > 66 µM (inactive) in each case.
On to `CCC(=O)Nc1ccc(-c2ccc(N3CCN(C)CC3)nn2)cc1`, for which the figures for the EC50 (in [1]; in [2]; with H4) were > 120 µM (not active), 15.5 µM (active) and 19.2 µM (active), respectively.
As to `Cc1cccc(C)c1N=C(S)Nc1ccc(Cl)c(Cl)c1`, the IC50 in [3] and in [4] was > 66 µM (inactive) each time.
In the case of `Cc1cc2cc(CNC(=O)c3ccc(Br)o3)ccc2n1C`, the IC50 in assay [3] and in [4] was > 66 µM (inactive) throughout.
In the case of `O=C(/C=C/c1ccco1)N1CCN(c2ncccn2)CC1`, the IC50 in assay [3] and in assay [4] was > 66 µM (inactive) each time.
With `O=C1NC2=C(C(=O)CCC2)C(c2ccccc2[N+](=O)[O-])N1` (configuration not stated), the IC50 in assay [3] and in assay [4] was > 66 µM (inactive) in each case.
For the compound `CCCC1c2ccc(C)n2CCN1C(=O)Nc1ccccc1Cl` (configuration not stated), the EC50 is 23 µM (active) in assay [1], 14.2 µM (active) in assay [2] and > 120 µM (not active) in the assay on H4.
On to `CCCCCCCOC(=O)c1ccc(OC(=O)c2cccnc2)cc1`, for which, at Protein RecA, the EC50 is > 380 µM (inconclusive).
In the case of `O=c1c(-c2ccc3c(c2)OCCO3)coc2c(CN3CCOCC3)c(O)ccc12`, the EC50 in assay [1] is 42.3 µM (active); in [2], 17.7 µM (active); in the assay on H4 it was > 120 µM (not active).
With `O=C(NNC(=S)Nc1ccc(Br)cc1Cl)c1ccncc1`, the IC50 in assay [3] and in [4] was > 66 µM (inactive) throughout.
Turning to `Cc1cc2c(NS(=O)(=O)c3ccc(F)cc3)cccc2nn1`, the IC50 in [5] was > 47.1 µM (inactive). The EC50 in assay [6] is > 53 µM (inactive).
The term AC50 denotes the concentration at which the activity in the assay is half-maximal. In the case of `COc1ccc(S(=O)(=O)N(C)C[C@H]2Oc3ccc(NC(=O)Nc4ccc(C(F)(F)F)cc4)cc3C(=O)N([C@H](C)CO)C[C@@H]2C)cc1`, at Paired box protein Pax-8, the AC50 was 8.69 µM (active).
As to `O=C(Nc1ccccc1)c1nc[nH]c1C(=O)NCCN(CCNC(=O)c1[nH]cnc1C(=O)Nc1ccccc1)CCNC(=O)c1[nH]cnc1C(=O)Nc1ccccc1`, the IC50 in assay [5] was > 47.1 µM (inactive). Besides, the EC50 in [6] was > 53 µM (inactive).
The matching figures for `CCOc1ccc(C(=O)NNC(=O)CCNC(=O)c2ccco2)cc1OC`: > 47.1 µM (inactive) and > 53 µM (inactive).
As for `C[C@H](CO)N1C[C@H](C)[C@H](CN(C)S(=O)(=O)c2ccc(Cl)cc2)OCCCC[C@H](C)Oc2ccc(NS(=O)(=O)c3ccc(F)cc3)cc2C1=O`, the half-maximal activity concentration (AC50) on Paired box protein Pax-8 is 9.43 µM (active).
Same read-out and setting: for `C[C@@H]1CCCCO[C@@H](CN(C)Cc2ccc(Cl)c(Cl)c2)[C@H](C)CN([C@H](C)CO)C(=O)c2cc(NC(=O)Nc3ccccc3)ccc2O1` the value was 12.5 µM (active).
Consider `CCOC(=O)c1c2ccc(OCC(=O)N/N=C/c3ccc(Cl)cc3)cc2n2ccccc12`, for which the EC50 in assay [7] was > 300 µM (not active).
